Reference: PubChem BioAssay (NCI)
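The compound was tested at five concentrations on cells cultured in 96-well plates, with a 48-hour exposure period. GI50: concentration for 50% inhibition of growth. TGI denotes the concentration required for complete inhibition of growth.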

Columns and labels:
Experiment in all cases: DTP human tumour cell line panel, 48 h
RPMI-8226 leukemia = tested on: RPMI-8226 leukemia
SF-539 CNS = tested on: SF-539 CNS
K-562 leukemia = tested on: K-562 leukemia
SK-MEL-28 melanoma = tested on: SK-MEL-28 melanoma
UACC-62 melanoma = tested on: UACC-62 melanoma
OVCAR-3 ovarian = tested on: OVCAR-3 ovarian
RXF 393 renal = tested on: RXF 393 renal
SNB-75 CNS = tested on: SNB-75 CNS
HT29 colon = tested on: HT29 colon
HOP-92 NSCLC = tested on: HOP-92 NSCLC
TK-10 renal = tested on: TK-10 renal
SK-MEL-2 melanoma = tested on: SK-MEL-2 melanoma
MDA-MB-435 = tested on: MDA-MB-435
HOP-62 NSCLC = tested on: HOP-62 NSCLC
HS 578T breast = tested on: HS 578T breast
OVCAR-4 ovarian = tested on: OVCAR-4 ovarian
A549 NSCLC = tested on: A549 NSCLC
LOX IMVI melanoma = tested on: LOX IMVI melanoma
SW-620 colon = tested on: SW-620 colon
MDA-MB-231 breast = tested on: MDA-MB-231 breast
COLO 205 colon = tested on: COLO 205 colon
BT-549 breast = tested on: BT-549 breast
UO-31 renal = tested on: UO-31 renal
MALME-3M melanoma = tested on: MALME-3M melanoma
SF-268 CNS = tested on: SF-268 CNS
M14 melanoma = tested on: M14 melanoma
UACC-257 melanoma = tested on: UACC-257 melanoma
786-0 renal = tested on: 786-0 renal

Cc1ncn(-c2ccc(/C=N/Nc3ccnc4cc(Cl)ccc34)cc2)c1C
TGI (RPMI-8226 leukemia): 4.52 µM
GI50 (SF-539 CNS): 1.82 µM
TGI (SF-539 CNS): 3.24 µM
GI50 (K-562 leukemia): 2.07 µM
TGI (K-562 leukemia): 8.07 µM
GI50 (SK-MEL-28 melanoma): 1.65 µM
TGI (SK-MEL-28 melanoma): 3.09 µM
GI50 (UACC-62 melanoma): 1.74 µM
TGI (UACC-62 melanoma): 3.24 µM
GI50 (OVCAR-3 ovarian): 1.83 µM
TGI (OVCAR-3 ovarian): 3.75 µM
GI50 (RXF 393 renal): 1.46 µM
TGI (RXF 393 renal): 2.87 µM
GI50 (SNB-75 CNS): 1.51 µM
TGI (SNB-75 CNS): 2.89 µM
GI50 (HT29 colon): 1.69 µM
TGI (HT29 colon): 3.33 µM
GI50 (HOP-92 NSCLC): 1.59 µM
TGI (HOP-92 NSCLC): 3.21 µM
GI50 (TK-10 renal): 1.85 µM
TGI (TK-10 renal): 3.36 µM
GI50 (SK-MEL-2 melanoma): 1.73 µM
TGI (SK-MEL-2 melanoma): 3.22 µM
GI50 (MDA-MB-435): 1.65 µM
TGI (MDA-MB-435): 3.05 µM
GI50 (HOP-62 NSCLC): 1.74 µM
TGI (HOP-62 NSCLC): 3.2 µM
GI50 (HS 578T breast): 2.01 µM
TGI (HS 578T breast): 4.48 µM
GI50 (OVCAR-4 ovarian): 1.67 µM
TGI (OVCAR-4 ovarian): 3.19 µM
GI50 (A549 NSCLC): 1.7 µM
TGI (A549 NSCLC): 3.16 µM
GI50 (LOX IMVI melanoma): 2.19 µM
TGI (LOX IMVI melanoma): 3.98 µM
GI50 (SW-620 colon): 1.63 µM
TGI (SW-620 colon): 3.54 µM
GI50 (MDA-MB-231 breast): 2.08 µM
TGI (MDA-MB-231 breast): 3.84 µM
GI50 (COLO 205 colon): 1.74 µM
TGI (COLO 205 colon): 3.28 µM
GI50 (BT-549 breast): 1.83 µM
TGI (BT-549 breast): 3.44 µM
GI50 (UO-31 renal): 1.64 µM
TGI (UO-31 renal): 3.03 µM
GI50 (MALME-3M melanoma): 1.93 µM
TGI (MALME-3M melanoma): 3.61 µM
GI50 (SF-268 CNS): 1.86 µM
TGI (SF-268 CNS): 3.96 µM
GI50 (M14 melanoma): 1.81 µM
TGI (M14 melanoma): 3.48 µM
GI50 (UACC-257 melanoma): 1.7 µM
TGI (UACC-257 melanoma): 3.11 µM
GI50 (786-0 renal): 1.61 µM
TGI (786-0 renal): 3.25 µM
